This note sets out measurements from ChEMBL document CHEMBL5223106, “Targeting non-alcoholic fatty liver disease: Design, X-ray co-crystal structure and synthesis of 'first-in-kind' inhibitors of serine/threonine kinase25” (Bioorg Med Chem Lett, 2022).

Calls of active or inactive are those of the source. The rule behind the calls is not given here.

In data set [1] the target is T1, Serine/threonine-protein kinase 25 (Homo sapiens, UniProt O00506). Put plainly: Inhibition of STK25 (unknown origin) by FRET assay.
Data set [2] concerns the target T1, Serine/threonine-protein kinase 25. As to the kind of experiment: Inhibition of STK25 (unknown origin).
Target sequence in this assay (O00506 whole entry): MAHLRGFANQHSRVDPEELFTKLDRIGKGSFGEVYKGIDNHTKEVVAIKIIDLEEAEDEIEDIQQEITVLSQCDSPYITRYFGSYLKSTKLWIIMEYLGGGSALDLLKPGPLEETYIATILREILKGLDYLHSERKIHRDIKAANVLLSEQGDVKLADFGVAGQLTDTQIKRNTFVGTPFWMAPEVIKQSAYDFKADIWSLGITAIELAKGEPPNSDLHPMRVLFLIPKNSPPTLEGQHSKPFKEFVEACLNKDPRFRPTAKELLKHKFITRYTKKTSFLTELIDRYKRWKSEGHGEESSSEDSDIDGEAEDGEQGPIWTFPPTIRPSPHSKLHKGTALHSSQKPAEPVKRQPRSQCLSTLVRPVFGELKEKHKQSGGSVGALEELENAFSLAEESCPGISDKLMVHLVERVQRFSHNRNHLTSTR
Data set [3] can be described thus: Efflux ratio of permeability across basolateral to apical side over apical to basolateral side in human Caco-2 cells. It is filed as ADME, cell-based. A general note: Caco-2 monolayers are a common model of the intestinal barrier.
A short description of data set [4]: Clearance in human microsomes. Format: ADME, Microsome.
A short description of data set [5]: Cytotoxicity against human HepG2 cells assessed as cell growth inhibition. It is filed as toxicity, cell-based.
Data set [6] deals with T1, Serine/threonine-protein kinase 25. As to the kind of experiment: Inhibition of STK25 (unknown origin) by cellular target engagement assay.
Target sequence in this assay (O00506 whole entry): as above
Data set [7] can be described thus: Solubility of compound. Format: physicochemical.
Data set [8] is described as follows: Clearance in mouse microsomes. It is filed as ADME, Microsome.
Data set [9] can be described thus: Plasma protein binding in mouse plasma assessed as free fraction. Format: ADME, cell-free.
Data set [10] can be described thus: Permeability of the compound in human Caco-2 cells at 10 uM. It is filed as ADME, cell-based. As to conditions: caco-2, 10 µM.

As to `CC(C)(C)c1cc(NC(=O)c2ccc(C(=O)N3CCCC3)cc2)n[nH]1`, the IC50 – broadly, the midpoint of a concentration-inhibition curve – in data set [1] turned out to be 5160 nM.
`CC(C)(C)c1cc(NC(=O)c2nnn3c2CO[C@@H](c2ccccc2)C3)n[nH]1`: the inhibition result in [1] was “inactive”.
`CC(C)(C)c1cc(NC(=O)c2ccc(S(=O)(=O)NC3CCCC3)cc2)n[nH]1` gave an IC50 in [1] of 865 nM.
Compound `Cc1ccc(C(=O)Nc2cc(C(C)(C)C)n[nH]2)cc1-n1cc(-c2cncc(N3CCOCC3)c2)nn1` returned an IC50 in data set [2] of 12 nM.
`CC(C)(C)c1cc(NC(=O)c2nnn3c2CO[C@H](Cc2ccccc2)C3)n[nH]1`: the inhibition result in data set [1] is “inactive”.
Take `CC(C)(C)c1cc(NC(=O)c2ccc(S(=O)(=O)N3CCCC3)cc2)n[nH]1`: the efflux ratio – broadly, a quotient of directional permeabilities that is used to spot active efflux – in [3] came out at 1. For the same compound, the IC50 in [1] was 228 nM; in [5], over 100000 nM; in data set [6] it was 211 nM. Also, the values for the CL in data set [4] and in data set [8] were 75 mL/min/g and 145 mL/min/g, respectively. Moreover, the solubility – broadly, the concentration that dissolves in the medium under given conditions – in data set [7] is over 100 µM. The free fraction (fraction unbound) – broadly, the share of the substance not bound to proteins or other matrix – in data set [9] amounted to 0.26. This compound also showed a permeability in data set [10] of 100%.
With `CC(C)(C)c1cc(NC(=O)c2nnn3c2CO[C@@H](Cc2ccccc2)C3)n[nH]1`, in [1], the inhibition result is “inactive”.
The compound `O=C(Nc1c[nH]nc1-c1nc2cc(CN3CCOCC3)ccc2[nH]1)NC1CC1` [AT-9283] returned an IC50 in data set [2] of 460 nM.
On to `CC(C)(C)c1cc(NC(=O)c2nnn3c2CO[C@H](c2ccccc2)C3)n[nH]1`, for which, in data set [1], the inhibition entry is “inactive”.
For `CCCCOc1ccc(C(=O)Nc2cc(C(C)(C)C)[nH]n2)cc1`, in data set [1], half-maximal inhibition (IC50) required 616 nM.
